Measured values: patent US10941143B2, “Imidazo [1,5-a]pyridine compounds and their use” (Alterity Therapeutics Limited, priority 2019, dated 2021)

Tested on: human neuroblastoma line BE(2)-M17 (M17) cells
Assay: Measurement of Fe efflux from cells
Type: cell-based
Conditions: M17 cells pre-loaded with 57Fe, compound 20 μM for 2 h, percentage increase of Fe in media relative to media without compound, read-out: % Fe Efflux Range
Experimental: Method I: Measurement of Fe Efflux from Cells
Compounds of the current invention were assessed for their ability to efflux iron (Fe) from a cell using the following protocol.
The human neuroblastoma line BE(2)-M17 (M17) cell cultures were acquired from Sigma Aldrich (Catalogue #: 95011816). M17 Cells were maintained in Opti-MEM reduced serum media supplemented with 10% fetal bovine serum (Bovogen, SFBSF) and passaged twice weekly. Cells were cultured at 37° C. in the presence of 5% CO2. Culture supplies were sourced from Thermo Fisher unless otherwise stated.
A solution of ^57Fe cold isotope was prepared by dissolving ^57Fe metal (>95% enrichment, Trace Sciences International) in concentrated HCl to give a final concentration of 573 mM. From this master solution, a 10 mM working solution was prepared in sterile water. The working solution was used within two months of preparation.
M17 cells were loaded with iron initially by seeding into 48-well plates at a density of 0.15×10^6 cells per well in 0.5 mL media. After 48 h, old media was discarded. Fresh media was supplemented with 20 μM ^57Fe isotope, from the 10 mM ^57Fe working solution. Cells received 0.2 mL of this ^57Fe enriched media and were returned to the incubator for 20 h. The ability of experimental compounds to efflux iron was determined by the dissolution of compounds in DMSO and diluted in Hanks' Balanced Salt Solution (HBSS) for treatment of M17 cells. After ^57Fe incubation, cells were rinsed twice with HBSS and treated with 0.15 mL trial compound for 2 h at a concentration of 20 μM. All assays included a relevant vehicle (0.4%-0.8% DMSO) as well as a positive control (20 μM). Following the treatment period, 0.1 mL of media was collected from cells and the extracellular ^57Fe content was analysed via inductively coupled mass spectrometry (ICP-MS, Agilent 7700x series instrument).
To perform this protocol the following supplies were purchased from Sigma Aldrich: anhydrous dimethyl sulfoxide (DMSO, Catalogue #: 276855), Hanks' Balanced Salt Solution supplemented with 20 mM HEPES and 4.2 mM Sodium Bicarbonate (HBSS, pH: 7.4, Catalogue #: H1387).
After 2 h the Fe levels in the media were measured and the increase determined as a percentage increase relative to the cell media in the absence of the compound.

Row | Structure (SMILES) | activation at 20 µM [%]
1 | COc1cccnc1-c1nc(-c2ccccc2O)n2ccccc12 [Compound 3, 2-(1-(3-Methoxypyridin-2-yl)imidazo[1,5-a]pyridin-3-yl)phenol] | 30 to 100
2 | Oc1ccccc1-c1nc(-c2ncccc2O)c2ccccn12 [Compound 4, 2-(3-(2-Hydroxyphenyl)imidazo[1,5-a]pyridin-1-yl)pyridin-3-ol] | > 150
3 | Oc1ccc(Br)cc1-c1nc(-c2ccccc2)n2ccccc12 [Compound 6] | < 30
4 | Oc1ccccc1-c1nc(-c2cc(Cl)cc(Cl)c2O)n2ccccc12 [Compound 7] | < 30
5 | Oc1ccccc1-c1nc(-c2cccc(F)c2O)n2ccccc12 [Compound 10, 2-Fluoro-6-(1-(2-hydroxyphenyl)imidazo[1,5-a]pyridin-3-yl)phenol] | 30 to 100
6 | N#Cc1ccccc1-c1nc(-c2ccccc2O)c2ccccn12 [Compound 16, 2-(1-(2-Hydroxyphenyl)imidazo[1,5-a]pyridin-3-yl)benzonitrile] | < 30
7 | Cc1ccc(O)c(-c2nc(-c3ccccc3O)c3ccccn23)c1 [Compound 17] | < 30
8 | Oc1ccccc1-c1nc(-c2c(O)cccc2F)n2ccccc12 [Compound 18, 3-Fluoro-2-(1-(2-hydroxyphenyl)imidazo[1,5-a]pyridin-3-yl)phenol] | 30 to 100
9 | COC(=O)c1ccccc1-c1nc(-c2ccccc2O)c2ccccn12 [Compound 20] | < 30
10 | Oc1ccccc1-c1nc(-c2cc(Cl)cc(Cl)c2)n2ccccc12 [Compound 21] | < 30
11 | COC(=O)c1ccc(O)c(-c2nc(-c3ccccc3O)c3ccccn23)c1 [Compound 22, Methyl 4-hydroxy-3-(1-(2-hydroxyphenyl)imidazo[1,5-a]pyridin-3-yl)benzoate] | 30 to 100
12 | Oc1ccccc1-c1nc(-c2cc(F)cc(F)c2O)n2ccccc12 [Compound 23] | < 30
13 | Oc1ccccc1-c1nc(-c2c(Cl)cccc2Cl)n2ccccc12 [Compound 24] | < 30
14 | COC(=O)c1ccc(-c2nc(-c3ccccc3O)c3ccccn23)cc1 [Compound 25] | < 30
15 | Oc1ccccc1-c1nc(-c2cccc(Cl)c2)n2ccccc12 [Compound 27] | < 30
16 | Oc1ccccc1-c1nc(-c2ccc(Cl)cc2)n2ccccc12 [Compound 29] | < 30
17 | Oc1c(F)cccc1-c1nc(-c2cccc(Br)c2O)c2ccccn12 [Compound 31] | < 30
18 | Oc1c(Cl)cccc1-c1nc(-c2cccc(Br)c2O)c2ccccn12 [Compound 32] | 30 to 100
19 | Oc1c(F)cc(F)cc1-c1nc(-c2cccc(Br)c2O)c2ccccn12 [Compound 33] | < 30
20 | Oc1cccc(F)c1-c1nc(-c2cccc(Br)c2O)c2ccccn12 [Compound 34] | 30 to 100
21 | Oc1cccc(Cl)c1-c1nc(-c2cccc(Br)c2O)c2ccccn12 [Compound 35] | < 30

Row | Structure (SMILES) | activation at 20 µM [%]
22 | Oc1ccccc1-c1nc(-c2cccc(F)c2O)c2ccccn12 [Compound 37] | < 30
23 | Oc1cccc(F)c1-c1nc(-c2cccc(F)c2O)c2ccccn12 [Compound 38] | 30 to 100
24 | Oc1cccc(Cl)c1-c1nc(-c2cccc(F)c2O)c2ccccn12 [Compound 39] | 30 to 100
25 | Oc1c(F)cccc1-c1nc(-c2cccc(F)c2O)n2ccccc12 [Compound 40] | 30 to 100
26 | Oc1c(F)cccc1-c1nc(-c2cccc(Cl)c2O)n2ccccc12 [Compound 41, 2-Chloro-6-(1-(3-fluoro-2-hydroxyphenyl)imidazo[1,5-a]pyridin-3-yl)phenol] | 30 to 100
27 | Oc1ccc(Cl)cc1-c1nc(-c2cccc(F)c2O)c2ccccn12 [Compound 42] | 30 to 100
28 | Oc1cc(F)c(Br)cc1-c1nc(-c2cccc(F)c2O)n2ccccc12 [Compound 44] | 30 to 100
29 | Oc1cc(F)c(Br)cc1-c1nc(-c2c(O)cccc2Cl)n2ccccc12 [Compound 46] | < 30
30 | Oc1cc(F)ccc1-c1nc(-c2c(O)cccc2F)n2ccccc12 [Compound 49] | < 30
31 | Oc1cc(F)ccc1-c1nc(-c2cccc(F)c2O)n2ccccc12 [Compound 50] | 30 to 100
32 | Oc1cc(F)ccc1-c1nc(-c2cc(F)ccc2O)n2ccccc12 [Compound 51] | < 30
33 | COc1cccnc1-c1nc(-c2c(O)cccc2F)n2ccccc12 [Compound 52] | < 30
34 | COc1cccnc1-c1nc(-c2cc(F)ccc2O)n2ccccc12 [Compound 56, 4-Fluoro-2-(1-(3-methoxypyridin-2-yl)imidazo[1,5-a]pyridin-3-yl)phenol] | 30 to 100
35 | COc1cccnc1-c1nc(-c2cc(Cl)cc(Cl)c2O)n2ccccc12 [Compound 59] | < 30
36 | COc1cccnc1-c1nc(-c2cc(C)ccc2O)n2ccccc12 [Compound 61] | 30 to 100
37 | Oc1cc(F)ccc1-c1nc(-c2cccc(Cl)c2O)n2ccccc12 [Compound 63] | < 30
38 | O=[N+]([O-])c1ccccc1-c1nc(-c2ccccc2O)c2ccccn12 [Compound 77] | < 30
39 | Oc1cccnc1-c1nc(-c2c(O)cccc2F)n2ccccc12 [Compound 79] | 100 to 150
40 | Oc1cccnc1-c1nc(-c2c(O)cccc2Cl)n2ccccc12 [Compound 80] | 30 to 100
41 | Oc1cccnc1-c1nc(-c2cccc(F)c2O)n2ccccc12 [Compound 81, 2-(3-(3-Fluoro-2-hydroxyphenyl)imidazo[1,5-a]pyridin-1-yl)pyridin-3-ol] | > 150
42 | Oc1cccnc1-c1nc(-c2cccc(Cl)c2O)n2ccccc12 [Compound 82] | 30 to 100

Row | Structure (SMILES) | activation at 20 µM [%]
43 | Oc1ccc(F)cc1-c1nc(-c2ncccc2O)c2ccccn12 [Compound 83] | 100 to 150
44 | Oc1cccnc1-c1nc(-c2cc(F)cc(F)c2O)n2ccccc12 [Compound 84, 2-(3-(3,5-Difluoro-2-hydroxyphenyl)imidazo[1,5-a]pyridin-1-yl)pyridin-3-ol] | > 150
45 | Oc1cccnc1-c1nc(-c2cc(Cl)cc(Cl)c2O)n2ccccc12 [Compound 85] | 30 to 100
46 | Cc1ccc(O)c(-c2nc(-c3c(O)cccc3F)n3ccccc23)c1 [Compound 87] | < 30
47 | Oc1ccc(Cl)cc1-c1nc(-c2ncccc2O)c2ccccn12 [Compound 92] | 100 to 150
48 | Oc1cc(Cl)ccc1-c1nc(-c2ncccc2O)c2ccccn12 [Compound 93] | 30 to 100
49 | Cc1ccc(O)c(-c2nc(-c3ncccc3O)c3ccccn23)c1 [Compound 94] | 30 to 100
50 | Oc1ccccc1-c1nc(-c2ncccc2O)n2ccccc12 [Compound 95, 2-(1-(2-Hydroxyphenyl)imidazo[1,5-a]pyridin-3-yl)pyridin-3-ol] | 30 to 100
51 | Oc1cc(C(F)(F)F)ccc1-c1nc(-c2cccc(F)c2O)n2ccccc12 [Compound 98, 2-(3-(3-Fluoro-2-hydroxyphenyl)imidazo[1,5-a]pyridin-1-yl)-5-(trifluoromethyl)phenol] | < 30
52 | COc1ccccc1-c1nc(-c2ccc(Cl)cc2O)n2ccc(C)cc12 [Compound 100, 5-Chloro-2-(1-(2-methoxyphenyl)-7-methylimidazo[1,5-a]pyridin-3-yl)phenol] | < 30
53 | Oc1ccccc1-c1nc(-c2ccccc2O)n2ncccc12 [Compound 102, 2,2′-(Imidazo[1,5-b]pyridazine-5,7-diyl)diphenol] | < 30
54 | Oc1ccccc1-c1nc(-c2cccc(F)c2O)n2ncccc12 [Compound 103] | 30 to 100
55 | Oc1ccccc1-c1nc(-c2cccc(Cl)c2O)n2ncccc12 [Compound 104] | < 30
56 | Oc1ccccc1-c1nc(-c2ccccc2O)n2cccnc12 [Compound 107, 2,2′-(Imidazo[1,5-a]pyrimidine-6,8-diyl)diphenol] | 30 to 100
57 | Cc1cccc(-c2nc(-c3ccccc3O)c3ncccn23)c1O [Compound 108] | < 30
58 | Oc1cnccc1-c1nc(-c2ccccc2O)n2ccccc12 [Compound 110] | > 150
59 | Oc1cnccc1-c1nc(-c2cccc(F)c2O)n2ccccc12 [Compound 111] | 100 to 150
60 | Oc1cnccc1-c1nc(-c2cccc(Cl)c2O)n2ccccc12 [Compound 112] | 100 to 150
61 | Oc1cnccc1-c1nc(-c2cc(F)cc(F)c2O)n2ccccc12 [Compound 114, 4-(3-(3,5-Difluoro-2-hydroxyphenyl)imidazo[1,5-a]pyridin-1-yl)pyridin-3-ol] | 100 to 150
62 | Oc1ccccc1-c1nc(-c2ncccc2O)c2cccnn12 [Compound 120, 2-(7-(2-Hydroxyphenyl)imidazo[1,5-b]pyridazin-5-yl)pyridin-3-ol] | 100 to 150
